The results in this text go back to US20080207708A1, “Oxazole and Thiazole Compounds and Their Use in the Treatment of Pge2 Mediated Disorders” (GLAXO GROUP LIMITED, priority 2005, published 2008).

A value given as a limit tells only on which side of the number the result lay.

This assay has as its target T1, EP1 receptors (Homo sapiens, UniProt P34995).
T1 sequence (P34995 1-402): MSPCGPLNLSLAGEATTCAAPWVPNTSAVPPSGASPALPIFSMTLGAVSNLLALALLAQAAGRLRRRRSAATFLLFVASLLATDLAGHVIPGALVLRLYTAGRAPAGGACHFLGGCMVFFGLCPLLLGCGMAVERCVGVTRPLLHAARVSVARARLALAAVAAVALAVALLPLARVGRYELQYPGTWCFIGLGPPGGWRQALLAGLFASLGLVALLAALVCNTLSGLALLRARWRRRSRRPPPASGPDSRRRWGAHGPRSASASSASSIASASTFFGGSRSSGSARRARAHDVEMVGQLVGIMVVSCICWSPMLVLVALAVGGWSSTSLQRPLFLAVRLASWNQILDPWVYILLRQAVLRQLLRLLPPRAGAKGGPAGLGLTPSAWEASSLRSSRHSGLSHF
The assay can be described thus: Binding assay for the human prostanoid EP1 receptor (competition with [3H]-PGE2). On the set-up: expressed in transfected cells; host or cells: CHO-K1 cells, membrane fraction. Particulars: [3H]-PGE2 competition; averages of a number of experiments; read-out: pIC50 value, binding assay for the human prostanoid EP1 receptor (converted). The procedure:
Competition assay using [^3H]-PGE2.
Compound potencies are determined using a radioligand binding assay. In this assay compound potencies are determined from their ability to compete with tritiated prostaglandin E2 ([^3H]-PGE2) for binding to the human EP1 receptor.
This assay utilises Chinese hamster ovary-K1 (CHO-K1) cells into which a stable vector containing the EP1 cDNA has previously been transfected. Cells are cultured in suitable flasks containing culture medium such as DMEM:F-12 supplemented with 10% v/v foetal calf serum, 2 mM L-glutamine, 0.25 mg/ml geneticin, 10 μg/ml puromycin and 10 μM indomethacin.
Cells are detached from the culture flasks by incubation in calcium and magnesium free phosphate buffered saline containing 1 mM disodium ethylenediaminetetraacetic acid (Na2EDTA) and 10 μM indomethacin for 5 min. The cells are isolated by centrifugation at 250×g for 5mins and suspended in an ice cold buffer such as 50 mM Tris, 1 mM Na2EDTA, 140 mM NaCl, 10 μM indomethacin (pH 7.4). The cells are homogenised using a Polytron tissue disrupter (2×10 s burst at full setting), centrifuged at 48,000×g for 20mins and the pellet containing the membrane fraction is washed (optional) three times by suspension and centrifugation at 48,000×g for 20mins. The final membrane pellet is suspended in an assay buffer such as 10 mM 2-[N-morpholino]ethanesulphonic acid, 1 mM Na2EDTA, 10 mM MgCl2 (pH 6). Aliquots are frozen at […] until required.
For the binding assay the cell membranes, competing compounds and [^3H]-PGE2 (3 nM final assay concentration) are incubated in a final volume of 100 μl for 30 min at 30° C. All reagents are prepared in assay buffer. Reactions are terminated by rapid vacuum filtration over GF/B filters using a Brandell cell harvester. The filters are washed with ice cold assay buffer, dried and the radioactivity retained on the filters is measured by liquid scintillation counting in Packard TopCount scintillation counter.
The data are analysed using non linear curve fitting techniques to determine the concentration of compound producing 50% inhibition of specific binding (IC50).
With `NC(=O)c1nc(Cc2cc(Cl)ccc2OCc2ccc(F)cc2F)cs1` [Example 1, 4-[(5-chloro-2-{[(2,4-difluorophenyl)methyl]oxy}phenyl)methyl]-1,3-thiazole-2-carboxamide], the IC50 was at most 1000 nM.

Consider `NC(=O)c1nc(Cc2cc(Cl)ccc2OCc2ccccc2F)cs1` [Example 2, 4-[(5-chloro-2-{[(2-fluorophenyl)methyl]oxy}phenyl)methyl]-1,3-thiazole-2-carboxamide], for which the IC50 was at most 1000 nM.

Turning to `NC(=O)c1nc(Cc2cc(Cl)ccc2OCc2ccccc2Cl)cs1` [Example 3, 4-[(5-chloro-2-{[(2-chlorophenyl)methyl]oxy}phenyl)methyl]-1,3-thiazole-2-carboxamide], the IC50 is at most 1000 nM.

Take `NC(=O)c1nc(Cc2cc(Cl)ccc2OCc2c(F)cc(F)cc2F)cs1` [Example 4, 4-[(5-chloro-2-{[(2,4,6-trifluorophenyl)methyl]oxy}phenyl)methyl]-1,3-thiazole-2-carboxamide]: the IC50 is at most 1000 nM.

`NC(=O)c1nc(Cc2cc(Cl)ccc2OCc2ccc(Cl)cc2)cs1` [Example 5, 4-[(5-chloro-2-{[(4-chlorophenyl)methyl]oxy}phenyl)methyl]-1,3-thiazole-2-carboxamide]: the IC50 is at most 1000 nM.

Consider `NC(=O)c1nc(Cc2cc(Cl)ccc2OCc2ccc(F)cc2Cl)cs1` [Example 6, 4-[(5-chloro-2-{[(2-chloro-4-fluorophenyl)methyl]oxy}phenyl)methyl]-1,3-thiazole-2-carboxamide], for which the IC50 is at most 1000 nM.

As for `NC(=O)c1nc(Cc2cc(Cl)ccc2OCc2c(F)ccc(F)c2F)cs1` [Example 7, 4-[(5-chloro-2-{[(2,3,6-trifluorophenyl)methyl]-oxy}phenyl)methyl]-1,3-thiazole-2-carboxamide], the IC50 is over 1000 nM.

With `NC(=O)c1nc(Cc2cc(Cl)ccc2OCc2cc(F)c(F)cc2F)cs1` [Example 8, 4-[(5-chloro-2-{[(2,4,5-trifluorophenyl)methyl]oxy}phenyl)methyl]-1,3-thiazole-2-carboxamide], the IC50 was at most 1000 nM.

Regarding `O=C(O)c1csc(Cc2cc(Cl)ccc2OCc2ccccc2)n1` [Example 9, 2-({5-chloro-2-[(phenylmethyl)oxy]phenyl}methyl)-1,3-thiazole-4-carboxylicacid], the IC50 was at most 31.6 nM.

Take `O=C(O)c1csc(Cc2cc(Cl)ccc2OCc2ccccc2F)n1` [Example 10, 2-[(5-chloro-2-{[(2-fluorophenyl)methyl]oxy}phenyl)methyl]-1,3-thiazole-4-carboxylicacid]: the IC50 was at most 31.6 nM.

Consider `O=C(O)c1csc(Cc2cc(Cl)ccc2OCc2ccc(Cl)cc2)n1` [Example 11, 2-[(5-chloro-2-{[(4-chlorophenyl)methyl]oxy}phenyl)methyl]-1,3-thiazole-4-carboxylicacid], for which the IC50 was at most 31.6 nM.

For the compound `O=C(O)c1csc(Cc2cc(Cl)ccc2OCc2ccc(F)cc2)n1` [Example 12, 2-[(5-chloro-2-{[(4-fluorophenyl)methyl]oxy}phenyl)methyl]-1,3-thiazole-4-carboxylicacid], the IC50 is at most 31.6 nM.

Turning to `O=C(O)c1csc(Cc2cc(Cl)ccc2OCc2c(F)cc(F)cc2F)n1` [Example 13, 2-[(5-chloro-2-{[(2,4,6-trifluorophenyl)methyl]oxy}phenyl)methyl]-1,3-thiazole-4-carboxylicacid], the IC50 is at most 31.6 nM.

Consider `O=C(O)c1csc(Cc2cc(Cl)ccc2OCc2ccc(F)cc2Cl)n1` [Example 14, 2-[(5-chloro-2-{[(2-chloro-4-fluorophenyl)methyl]oxy}phenyl)methyl]-1,3-thiazole-4-carboxylicacid], for which the IC50 was at most 31.6 nM.

For `O=C(O)c1csc(Cc2cc(Cl)ccc2OCc2ccccc2Cl)n1` [Example 15, 2-[(5-chloro-2-{[(2-chlorophenyl)methyl]oxy}phenyl)methyl]-1,3-thiazole-4-carboxylicacid], the IC50 is at most 31.6 nM.

As for `O=C(O)c1csc(Cc2cc(Cl)ccc2OCc2ccc(F)cc2F)n1` [Example 16, 2-[(5-chloro-2-{[(2,4-difluorophenyl)methyl]oxy}phenyl)methyl]-1,3-thiazole-4-carboxylicacid], the IC50 was at most 31.6 nM.

In the case of `O=C(O)c1csc(Cc2cc(Cl)ccc2OCc2ccc(Cl)cc2Cl)n1` [Example 17, 2-[(5-chloro-2-{[(2,4-dichlorophenyl)methyl]oxy}phenyl)methyl]-1,3-thiazole-4-carboxylicacid], the IC50 was at most 31.6 nM.

Consider `O=C(O)c1csc(Cc2cc(Cl)ccc2OCc2cc(F)c(F)cc2F)n1` [Example 18, Sodium 2-[(5-chloro-2-{[(2,4,5-trifluorophenyl)methyl]oxy}phenyl)methyl]-1,3-thiazole-4-carboxylate], for which the IC50 was at most 31.6 nM.

Regarding `O=C(O)c1csc(Cc2cc(Cl)ccc2OCc2c(F)ccc(F)c2F)n1` [Example 19, Sodium 2-[(5-chloro-2-{[(2,3,6-trifluorophenyl)methyl]oxy}phenyl)methyl]-1,3-thiazole-4-carboxylate], the IC50 is at most 1000 nM.

`O=C(O)c1csc(Cc2cc(Cl)ccc2OCc2ccc(F)c(F)c2F)n1` [Example 20, Sodium 2-[(5-chloro-2-{[(2,3,4-trifluorophenyl)methyl]oxy}phenyl)methyl]-1,3-thiazole-4-carboxylate]: the IC50 is at most 1000 nM.

Take `O=C(O)c1csc(Cc2cc(Cl)ccc2OCc2cc(F)c(F)c(F)c2)n1` [Example 21, Sodium 2-[(5-chloro-2-{[(3,4,5-trifluorophenyl)methyl]oxy}phenyl)methyl]-1,3-thiazole-4-carboxylate]: the IC50 is at most 1000 nM.

In the case of `O=C(O)c1csc(Cc2cc(Cl)ccc2OCc2ccc(Br)cc2F)n1` [Example 22, Sodium 2-[(2-{[(4-bromo-2-fluorophenyl)methyl]oxy}-5-chlorophenyl)methyl]-1,3-thiazole-4-carboxylate], the IC50 was at most 31.6 nM.

Turning to `CC(C)COc1ccc(Cl)cc1Cc1nc(C(=O)O)cs1` [Example 23, Sodium 2-({5-chloro-2-[(2-methylpropyl)oxy}phenyl}methyl)-1,3-thiazole-4-carboxylate], the IC50 is at most 31.6 nM.

Consider `O=C(O)c1csc(Cc2cc(C(F)(F)F)ccc2OCc2ccccc2)n1` [Example 24, Sodium 2-{[2-[(phenylmethyl)oxy]-5-(trifluoromethyl)phenyl]methyl}-1,3-thiazole-4-carboxylate], for which the IC50 is at most 31.6 nM.

On to `O=C(O)c1csc(Cc2cc(C(F)(F)F)ccc2OCc2ccc(F)cc2)n1` [Example 25, Sodium 2-{[2-{[(4-fluorophenyl)methyl]oxy}-5-(trifluoromethyl)phenyl]methyl}-1,3-thiazole-4-carboxylate], for which the IC50 is at most 1000 nM.

Take `O=C(O)c1csc(Cc2cc(C(F)(F)F)ccc2OCc2ccc(F)cc2F)n1` [Example 26, Sodium 2-{[2-{[(2,4-difluorophenyl)methyl]oxy}-5-(trifluoromethyl)phenyl]methyl}-1,3-thiazole-4-carboxylate]: the IC50 was at most 31.6 nM.

For the compound `O=C(O)c1csc(Cc2cc(Cl)ccc2OCC2CCCC2)n1` [Example 27, Sodium 2-({5-chloro-2-[(cyclopentylmethyl)oxy]phenyl}methyl)-1,3-thiazole-4-carboxylate], the IC50 is at most 31.6 nM.

Regarding `O=C(O)c1csc(Cc2cc(C(F)(F)F)ccc2OCc2ccccc2Br)n1` [Example 28, Sodium 2-{[2-{[(2-bromophenyl)methyl]oxy}-5-(trifluoromethyl)phenyl]methyl}-1,3-thiazole-4-carboxylate], the IC50 was at most 1000 nM.
